From the Kinase Knowledgebase extract (Sharma et al. 2016)
Several values for one entry are separate records, joined by “and”; a condition that tells them apart may be missing. Equal values may be shown once.

How the values were obtained:
EGFR (human) = EGFR (human) (UniProt P00533)
[1] = target: EGFR (human), P00533 [L858R]
[2] = target: EGFR (Human), P00533 [T790M/L858R]
[3] = target: EGFR (Human), P00533 [Assessment of EGFR-Del T790M Dependent Cell Proliferation in BaF3 Cells]
[4] = target: EGFR (Human), P00533 [T790M/L858R]; settings: baf3

Chain of EGFR (human), P00533 [L858R] (P00533 whole entry L858R, looked up): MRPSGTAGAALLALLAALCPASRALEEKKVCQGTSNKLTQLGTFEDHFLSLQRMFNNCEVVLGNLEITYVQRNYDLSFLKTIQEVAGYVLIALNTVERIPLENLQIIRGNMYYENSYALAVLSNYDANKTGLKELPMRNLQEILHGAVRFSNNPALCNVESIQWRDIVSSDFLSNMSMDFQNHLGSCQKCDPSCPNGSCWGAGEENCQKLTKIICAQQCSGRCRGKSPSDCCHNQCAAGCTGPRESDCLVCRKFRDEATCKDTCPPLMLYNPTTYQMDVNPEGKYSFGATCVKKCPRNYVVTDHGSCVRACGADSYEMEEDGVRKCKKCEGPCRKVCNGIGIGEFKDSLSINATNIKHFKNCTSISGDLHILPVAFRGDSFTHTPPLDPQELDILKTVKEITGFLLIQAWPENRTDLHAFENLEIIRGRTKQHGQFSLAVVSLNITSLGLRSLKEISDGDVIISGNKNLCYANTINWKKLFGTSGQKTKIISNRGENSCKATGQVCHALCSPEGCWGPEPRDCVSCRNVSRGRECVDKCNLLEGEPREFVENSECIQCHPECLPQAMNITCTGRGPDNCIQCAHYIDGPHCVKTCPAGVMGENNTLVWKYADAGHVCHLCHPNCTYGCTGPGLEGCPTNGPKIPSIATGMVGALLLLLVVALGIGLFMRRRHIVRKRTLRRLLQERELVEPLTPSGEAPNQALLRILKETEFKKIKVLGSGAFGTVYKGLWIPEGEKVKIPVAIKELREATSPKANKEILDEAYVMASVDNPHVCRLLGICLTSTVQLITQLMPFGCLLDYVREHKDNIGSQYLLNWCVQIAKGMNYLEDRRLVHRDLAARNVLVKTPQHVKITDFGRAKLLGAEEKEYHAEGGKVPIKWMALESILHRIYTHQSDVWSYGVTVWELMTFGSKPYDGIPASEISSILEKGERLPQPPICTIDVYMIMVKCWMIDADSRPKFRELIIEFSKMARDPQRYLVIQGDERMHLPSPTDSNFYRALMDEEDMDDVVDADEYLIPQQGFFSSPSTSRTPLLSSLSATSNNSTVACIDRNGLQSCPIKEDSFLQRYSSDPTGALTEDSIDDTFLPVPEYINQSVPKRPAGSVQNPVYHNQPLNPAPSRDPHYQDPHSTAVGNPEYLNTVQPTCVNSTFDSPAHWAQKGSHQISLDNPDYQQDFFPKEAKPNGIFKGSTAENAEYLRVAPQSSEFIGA
Chain of EGFR (Human), P00533 [T790M/L858R] (P00533 whole entry T790M/L858R, looked up): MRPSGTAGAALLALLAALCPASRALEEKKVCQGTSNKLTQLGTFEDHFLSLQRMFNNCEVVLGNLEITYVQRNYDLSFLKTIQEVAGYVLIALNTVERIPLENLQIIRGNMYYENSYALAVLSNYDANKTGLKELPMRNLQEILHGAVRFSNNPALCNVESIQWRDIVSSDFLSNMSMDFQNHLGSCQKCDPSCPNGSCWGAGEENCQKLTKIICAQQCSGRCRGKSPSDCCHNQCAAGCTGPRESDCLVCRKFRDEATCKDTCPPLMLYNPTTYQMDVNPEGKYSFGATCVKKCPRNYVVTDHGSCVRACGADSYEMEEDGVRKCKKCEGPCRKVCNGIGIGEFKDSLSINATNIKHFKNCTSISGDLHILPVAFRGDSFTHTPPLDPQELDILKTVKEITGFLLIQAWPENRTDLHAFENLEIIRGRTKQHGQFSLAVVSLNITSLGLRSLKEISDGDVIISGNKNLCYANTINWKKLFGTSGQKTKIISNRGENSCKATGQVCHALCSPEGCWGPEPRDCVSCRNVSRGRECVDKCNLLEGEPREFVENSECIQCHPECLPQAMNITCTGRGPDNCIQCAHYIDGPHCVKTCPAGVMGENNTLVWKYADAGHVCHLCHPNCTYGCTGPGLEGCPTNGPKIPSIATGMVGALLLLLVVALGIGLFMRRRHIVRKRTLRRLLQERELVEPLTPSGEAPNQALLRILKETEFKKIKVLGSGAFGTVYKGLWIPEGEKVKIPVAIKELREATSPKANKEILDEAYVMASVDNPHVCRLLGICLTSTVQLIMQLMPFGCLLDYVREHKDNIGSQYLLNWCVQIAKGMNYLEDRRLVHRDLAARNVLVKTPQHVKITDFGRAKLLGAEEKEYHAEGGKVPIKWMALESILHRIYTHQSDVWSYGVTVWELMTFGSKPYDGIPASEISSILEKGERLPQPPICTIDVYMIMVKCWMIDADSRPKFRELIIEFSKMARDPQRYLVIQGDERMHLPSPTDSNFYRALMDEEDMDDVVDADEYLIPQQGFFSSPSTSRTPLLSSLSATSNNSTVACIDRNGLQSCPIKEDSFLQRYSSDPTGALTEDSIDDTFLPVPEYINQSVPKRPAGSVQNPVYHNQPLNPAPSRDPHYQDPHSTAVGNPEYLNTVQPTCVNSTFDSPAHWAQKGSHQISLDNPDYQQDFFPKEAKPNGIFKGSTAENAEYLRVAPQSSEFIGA
Chain of EGFR (human) (P00533 whole entry, looked up): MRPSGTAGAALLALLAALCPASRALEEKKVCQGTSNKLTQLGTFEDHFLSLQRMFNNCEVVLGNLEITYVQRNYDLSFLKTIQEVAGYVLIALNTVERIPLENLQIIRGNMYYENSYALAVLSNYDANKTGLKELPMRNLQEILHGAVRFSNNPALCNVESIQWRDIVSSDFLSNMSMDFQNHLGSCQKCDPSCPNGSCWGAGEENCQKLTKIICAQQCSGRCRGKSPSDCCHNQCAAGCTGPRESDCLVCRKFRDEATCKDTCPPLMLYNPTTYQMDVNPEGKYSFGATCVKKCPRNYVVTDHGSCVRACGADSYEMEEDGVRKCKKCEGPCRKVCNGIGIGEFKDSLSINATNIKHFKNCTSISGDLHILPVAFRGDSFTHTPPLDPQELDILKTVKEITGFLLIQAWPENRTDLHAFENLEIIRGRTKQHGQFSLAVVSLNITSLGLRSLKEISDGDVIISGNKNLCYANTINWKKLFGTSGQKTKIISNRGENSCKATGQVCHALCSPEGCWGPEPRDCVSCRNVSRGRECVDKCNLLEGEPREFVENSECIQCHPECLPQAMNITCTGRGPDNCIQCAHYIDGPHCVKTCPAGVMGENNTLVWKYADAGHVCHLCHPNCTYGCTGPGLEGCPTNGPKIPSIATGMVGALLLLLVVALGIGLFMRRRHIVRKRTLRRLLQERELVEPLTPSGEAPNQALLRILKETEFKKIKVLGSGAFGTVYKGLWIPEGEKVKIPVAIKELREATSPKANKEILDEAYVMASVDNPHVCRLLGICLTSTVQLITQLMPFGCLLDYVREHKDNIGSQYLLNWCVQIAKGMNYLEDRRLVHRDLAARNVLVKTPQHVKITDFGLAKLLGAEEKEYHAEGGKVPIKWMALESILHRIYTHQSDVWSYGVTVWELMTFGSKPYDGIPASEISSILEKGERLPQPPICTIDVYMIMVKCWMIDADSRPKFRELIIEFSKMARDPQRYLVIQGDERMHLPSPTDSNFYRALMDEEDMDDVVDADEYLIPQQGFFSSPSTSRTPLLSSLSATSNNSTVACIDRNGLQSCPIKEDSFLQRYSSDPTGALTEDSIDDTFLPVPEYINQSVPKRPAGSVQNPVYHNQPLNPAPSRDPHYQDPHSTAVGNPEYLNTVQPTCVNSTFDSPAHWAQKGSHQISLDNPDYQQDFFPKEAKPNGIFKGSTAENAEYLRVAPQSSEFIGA
Chain of EGFR (Human), P00533 [Assessment of EGFR-Del T790M Dependent Cell Proliferation in BaF3 Cells] (P00533 whole entry, looked up, stated change not applied): as the sequence (P00533 whole entry, looked up) above

SMILES | IC50 (EGFR (human)) [nM] | IC50 [1] [nM] | IC50 [2] [nM] | IC50 [3] | IC50 [4]
C=CC(=O)Nc1cc(Nc2ncc(C3CC3)c(Nc3ccccc3P(C)(C)=O)n2)c(OC)cc1N(C)CCN(CC)CC | < 50 | < 50 | < 50 | < 50 nM | < 50 nM
COc1cc(C)c(NC(=O)CCl)cc1Nc1ncc(C)c(Nc2ccccc2P(C)(C)=O)n1 | < 50 | < 50 | < 50 | < 50 nM | < 50 nM
C=C(CN1CCC(N2CCN(C)CC2)CC1)C(=O)Nc1ccc(OC)c(Nc2ncc(Cl)c(Nc3ccccc3P(C)(C)=O)n2)c1 | < 50 | < 50 | < 50 | < 50 nM | < 50 nM
C=CC(=O)Nc1cc(Nc2ncc(Cl)c(Nc3ccccc3P(C)(C)=O)n2)c(OC)cc1C#CCN1CCN(C)CC1 | < 50 | < 50 | < 50 | < 50 nM | 101 to 250 nM
COc1ccc(NC(=O)C#Cc2ccccc2)cc1Nc1ncc(Cl)c(Nc2ccccc2P(C)(C)=O)n1 | – | < 50 | < 50 | < 50 nM | < 50 nM
COc1cc(C)c(NC(=O)CCl)cc1Nc1ncc(Cl)c(Nc2ccccc2P(C)(C)=O)n1 | < 50 | < 50 | < 50 | < 50 nM | < 50 nM
C=CC(=O)Nc1cc(Nc2ncc(Cl)c(Nc3ccccc3P(C)(C)=O)n2)c(OC)cc1N1CCC(N(C)CCN(CC)CC)C1 (stereo not drawn) | < 50 | < 50 | < 50 | < 50 nM | 101 to 250 nM
C=CC(=O)Nc1cc(Nc2ncc(Cl)c(Nc3ccccc3P(C)(C)=O)n2)c(OC)cc1C#CC1(N(C)C)CC1 | – | < 50 | < 50 | 101 to 250 nM | 101 to 250 nM
C=CC(=O)Nc1cc(Nc2ncc(Cl)c(Nc3ccccc3P(C)(C)=O)n2)c(OC)cc1OC1CCN(C)C1 (stereo not drawn) | < 50 | < 50 | < 50 | < 50 nM | < 50 nM
COc1cc(F)c(NC(=O)C#CCN2CCCC2)cc1Nc1ncc(Cl)c(Nc2ccccc2P(C)(C)=O)n1 | < 50 | < 50 | < 50 | < 50 nM | < 50 nM
C=C(CN1CCOCC1)C(=O)Nc1ccc(OC)c(Nc2ncc(Cl)c(Nc3ccccc3P(C)(C)=O)n2)c1 | < 50 | < 50 | < 50 | < 50 nM | < 50 nM
C=CC(=O)Nc1cc(Nc2ncc(Cl)c(Nc3ccccc3P(C)(C)=O)n2)c(OC)cc1N1CCC(N2CCC(O)CC2)C1 (stereo not drawn) | < 50 | < 50 | < 50 | 101 to 250 nM | –
COc1ccc(NC(=O)/C=C/C2(N)CC2)cc1Nc1ncc(Cl)c(Nc2ccccc2P(C)(C)=O)n1 | 101 to 250 | < 50 | < 50 | – | –
C=CC(=O)Nc1cc(Nc2ncc(Cl)c(Nc3ccccc3P(C)(C)=O)n2)c(OC)cc1OCCN1CCN(C)CC1 | 101 to 250 | < 50 | < 50 | – | –
CC#CC(=O)Nc1cc(Nc2ncc(Cl)c(Nc3ccccc3P(C)(C)=O)n2)c(OC)cc1OCCN1CCCC1 | – | < 50 | < 50 | < 50 nM | 101 to 250 nM
C=CC(=O)Nc1cc(Nc2ncc(Cl)c(Nc3ccccc3P(C)(C)=O)n2)c(OC)cc1N1CCC(N)C1 (stereo not drawn) | < 50 | < 50 | < 50 | – | –
C=CC(=O)Nc1cc(Nc2ncc(Cl)c(Nc3ccccc3P(C)(C)=O)n2)c(OC)cc1N1CCC(N2CCN(CCO)CC2)C1 (stereo not drawn) | < 50 | < 50 | < 50 | – | –
C=CC(=O)Nc1cc(Nc2ncc(Cl)c(Nc3ccccc3P(C)(C)=O)n2)c(OC)cc1CCN1CCN(C)CC1 | < 50 | < 50 | < 50 | 101 to 250 nM | –
COc1ccc(NC(=O)CF)cc1Nc1ncc(Cl)c(Nc2ccccc2P(C)(C)=O)n1 | – | 50 to 100 | 101 to 250 | – | –
COc1ccc(NC(=O)/C=C/C(=O)N2CCN(C)CC2)cc1Nc1ncc(Cl)c(Nc2ccccc2P(C)(C)=O)n1 | < 50 | < 50 | < 50 | 101 to 250 nM | –
C=CC(=O)Nc1cc(Nc2ncc(Cl)c(Nc3ccccc3P(C)(C)=O)n2)c(OC)cc1OCC(CO)N(C)C (stereo not drawn) | – | – | – | 101 to 250 nM | –
C=CC(=O)Nc1ccc(OC)c(Nc2ncc(Cl)c(Nc3ccccc3P(C)(C)=O)n2)c1 | – | < 50 | < 50 | 101 to 250 nM | –
COc1ccc(NC(=O)/C=C/C(=O)N(C)C)cc1Nc1ncc(Cl)c(Nc2ccccc2P(C)(C)=O)n1 | – | 50 to 100 | 101 to 250 | – | –
COc1ccc(NC(=O)/C=C\C(=O)N2CCN(C)CC2)cc1Nc1ncc(Cl)c(Nc2ccccc2P(C)(C)=O)n1 | – | 101 to 250 | – | – | –
C=CC(=O)Nc1cc(Nc2ncc(Cl)c(Nc3ccccc3P(C)(C)=O)n2)c(OC)cc1C#CCN(CC)CC | – | < 50 | < 50 | < 50 nM | < 50 nM
C=CC(=O)Nc1cc(Nc2ncc(Cl)c(Nc3ccccc3P(C)(C)=O)n2)c(OC)cc1OCC1CCCN1C (stereo not drawn) | – | – | – | < 50 nM | < 50 nM
C=CC(=O)Nc1cc(Nc2ncc(Cl)c(Nc3ccccc3P(C)(C)=O)n2)c(OC)cc1C(=O)N1CCN(C)CC1 | 101 to 250 | < 50 | < 50 | – | –

SMILES | IC50 (EGFR (human)) [nM] | IC50 [1] [nM] | IC50 [2] [nM] | IC50 [3] | IC50 [4]
C=C(CN1CCNC(=O)C1)C(=O)Nc1ccc(OC)c(Nc2ncc(Cl)c(Nc3ccccc3P(C)(C)=O)n2)c1 | < 50 | < 50 | < 50 | 101 to 250 nM | –
C=CC(=O)Nc1cc(Nc2ncc(Cl)c(Nc3ccccc3P(C)(C)=O)n2)c(OC)cc1OC1COC1 | – | < 50 | < 50 | < 50 nM | 50 to 100 nM
C=CC(=O)Nc1cc(Nc2ncc(Cl)c(Nc3ccccc3P(C)(C)=O)n2)c(OC)cc1N1CCC(N2CCC(O)C2)C1 (stereo not drawn) | < 50 | < 50 | < 50 | 101 to 250 nM | –
CC#CC(=O)Nc1cc(Nc2ncc(Cl)c(Nc3ccccc3P(C)(C)=O)n2)c(OC)cc1OC1COC1 | – | < 50 | 50 to 100 | < 50 nM | 50 to 100 nM
C=CC(=O)Nc1cc(Cc2ncc(Cl)c(Nc3ccccc3P(C)(C)=O)n2)c(OC)cc1C#CCN1CCC(C)CC1 | < 50 | < 50 | < 50 | – | –
C=CC(=O)Nc1ccc(OC)c(Nc2cc(Nc3ccccc3P(C)(C)=O)ncn2)c1 | 50 to 100 | < 50 | 101 to 250 | – | –
COc1cc(P(C)(C)=O)ccc1Nc1ncc(Cl)c(Oc2cccc(NC(=O)C#CCN(C)C)c2)n1 | < 50 | < 50 | < 50 | 101 to 250 nM | –
C=CC(=O)Nc1cc(Nc2ncc(Cl)c(Nc3ccccc3P(C)(C)=O)n2)c(OC)cc1OCC1CCOCC1 | – | < 50 | 50 to 100 | 50 to 100 nM | 101 to 250 nM
COc1ccc(NC(=O)/C=C\C(=O)NCCN(C)C)cc1Nc1ncc(Cl)c(Nc2ccccc2P(C)(C)=O)n1 | – | < 50 | < 50 | – | –
C=CC(=O)Nc1cc(Nc2ncc(Cl)c(Nc3ccccc3P(C)(C)=O)n2)c(OC)cc1OC1CN(C)C1 | – | – | – | 50 to 100 nM | 101 to 250 nM
COc1ccc(NC(=O)/C=C\C(=O)O)cc1Nc1ncc(Cl)c(Nc2ccccc2P(C)(C)=O)n1 | – | – | 101 to 250 | – | –
C=CC(=O)Nc1cc(Cc2ncc(Cl)c(Nc3ccccc3P(C)(C)=O)n2)c(OC)cc1C#CCN(C)C(C)(C)C | < 50 | < 50 | < 50 | – | –
CNC(=O)/C=C\C(=O)Nc1ccc(OC)c(Nc2ncc(Cl)c(Nc3ccccc3P(C)(C)=O)n2)c1 | – | < 50 | < 50 | < 50 nM | 101 to 250 nM
COc1ccc(NC(=O)C2=CCCN(C)C2)cc1Nc1ncc(Cl)c(Nc2ccccc2P(C)(C)=O)n1 | – | < 50 | < 50 | – | –
C=C(CN1CCS(=O)(=O)CC1)C(=O)Nc1ccc(OC)c(Nc2ncc(Cl)c(Nc3ccccc3P(C)(C)=O)n2)c1 | – | 50 to 100 | < 50 | – | –
C=CC(=O)Nc1cc(Nc2ncc(Cl)c(Nc3ccccc3P(C)(C)=O)n2)c(OC)cc1N1CCC(N2CCN(C)CC2)CC1 | < 50 | – | < 50 | 50 to 100 nM and < 50 nM | 50 to 100 nM and < 50 nM
C=C(F)C(=O)Nc1ccc(OC)c(Nc2ncc(Cl)c(Nc3ccccc3P(C)(C)=O)n2)c1 | – | < 50 | 50 to 100 | < 50 nM | 50 to 100 nM
C=CC(=O)Nc1cc(Cc2ncc(Cl)c(Nc3ccccc3P(C)(C)=O)n2)c(OC)cc1C#CCN1CCC(N(C)C)C1 (stereo not drawn) | 50 to 100 | < 50 | < 50 | – | –
C=CC(=O)Nc1cc(Nc2ncc(Cl)c(Nc3ccccc3P(C)(C)=O)n2)c(OC)cc1OCC1CCN(C)CC1 | 50 to 100 | < 50 | < 50 | 101 to 250 nM | –
C=C(C(=O)Nc1ccc(OC)c(Nc2ncc(Cl)c(Nc3ccccc3P(C)(C)=O)n2)c1)C(F)(F)F | < 50 | < 50 | < 50 | – | –
COc1ccc(NC(=O)/C=C/CN2CCCC2)cc1Nc1ncc(Cl)c(Nc2ccccc2P(C)(C)=O)n1 | – | < 50 | < 50 | 50 to 100 nM | –
CC#CC(=O)Nc1cc(Nc2ncc(Cl)c(Nc3ccccc3P(C)(C)=O)n2)c(OC)cc1OCC1CCOCC1 | – | 101 to 250 | – | < 50 nM | 50 to 100 nM
C=CC(=O)Nc1ccc(OC)c(Nc2ncc(C#N)c(Nc3ccccc3P(C)(C)=O)n2)c1 | < 50 | < 50 | < 50 | 101 to 250 nM | –
C=CC(=O)N1CCc2cc(Nc3ncc(Cl)c(Nc4ccccc4P(C)(C)=O)n3)c(OC)cc21 | – | – | – | 101 to 250 nM | –
COc1ccc(NC(=O)/C=C/C(=O)NCCN(C)C)cc1Nc1ncc(Cl)c(Nc2ccccc2P(C)(C)=O)n1 | < 50 | < 50 | < 50 | – | –
CNC(=O)/C=C/C(=O)Nc1ccc(OC)c(Nc2ncc(Cl)c(Nc3ccccc3P(C)(C)=O)n2)c1 | – | < 50 | < 50 | 50 to 100 nM | 101 to 250 nM
C=CC(=O)Nc1ccc(F)c(Nc2ncc(Cl)c(Nc3ccccc3P(C)(C)=O)n2)c1 | – | – | – | < 50 nM | < 50 nM
